Assay results taken from PMC4197230, “Terpene synthases and their contribution to herbivore-induced volatile emission in western balsam poplar (Populus trichocarpa)” (BMC Plant Biology, 2014).

Experiments:
Assay type in all cases: biochemical
PtTPS12 = target: T1, PtTPS12 (Populus trichocarpa, UniProt A0A076GAU9); assay: SPME GC-MS product analysis, bacterial extract; details: 10 mM MgCl2, pH 7.0, 30 C, desalted E. coli extract, empty-vector control
T1 construct: gene TPS12; N-terminally truncated (first 126 nt deleted, predicted plastid transit peptide), pASK-IBA7, E. coli TOP10, desalted bacterial extract

PtTPS14 = target: T2, PtTPS14 (Populus trichocarpa, UniProt A0A076GBU1); assay: SPME GC-MS product analysis, bacterial extract; details: 10 uM FPP, 10 mM MgCl2, pH 7.0, 30 C; desalted E. coli extract, empty-vector control; marginal activity
T2 construct: gene TPS14; full ORF in pASK-IBA7 (vector tag, if any, not described), E. coli TOP10, desalted bacterial extract
T2 sequence (A0A076GBU1 1-560): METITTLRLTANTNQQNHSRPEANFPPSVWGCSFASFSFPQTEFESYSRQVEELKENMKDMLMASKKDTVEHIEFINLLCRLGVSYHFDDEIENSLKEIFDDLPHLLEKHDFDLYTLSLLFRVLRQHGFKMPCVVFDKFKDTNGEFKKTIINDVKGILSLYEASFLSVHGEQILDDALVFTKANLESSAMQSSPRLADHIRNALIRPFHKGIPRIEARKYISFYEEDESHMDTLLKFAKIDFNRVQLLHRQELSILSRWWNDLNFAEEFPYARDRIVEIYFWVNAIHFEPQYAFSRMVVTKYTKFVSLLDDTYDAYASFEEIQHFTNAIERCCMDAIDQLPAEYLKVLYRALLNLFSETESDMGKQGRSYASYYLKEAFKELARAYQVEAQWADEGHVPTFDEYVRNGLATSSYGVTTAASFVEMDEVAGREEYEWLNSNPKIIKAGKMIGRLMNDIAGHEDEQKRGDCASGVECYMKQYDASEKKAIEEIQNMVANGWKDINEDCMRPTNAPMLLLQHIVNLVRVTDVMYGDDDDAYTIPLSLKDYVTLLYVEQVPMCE

PtTPS15 = target: T3, PtTPS15 (Populus trichocarpa, UniProt A0A076GBT1); assay: SPME GC-MS product analysis, bacterial extract; details: 10 mM MgCl2, pH 7.0, 30 C, desalted E. coli extract, empty-vector control
T3 construct: gene TPS15; full ORF in pASK-IBA7 (vector tag, if any, not described), E. coli TOP10, desalted bacterial extract
T3 sequence (A0A076GBT1 1-528): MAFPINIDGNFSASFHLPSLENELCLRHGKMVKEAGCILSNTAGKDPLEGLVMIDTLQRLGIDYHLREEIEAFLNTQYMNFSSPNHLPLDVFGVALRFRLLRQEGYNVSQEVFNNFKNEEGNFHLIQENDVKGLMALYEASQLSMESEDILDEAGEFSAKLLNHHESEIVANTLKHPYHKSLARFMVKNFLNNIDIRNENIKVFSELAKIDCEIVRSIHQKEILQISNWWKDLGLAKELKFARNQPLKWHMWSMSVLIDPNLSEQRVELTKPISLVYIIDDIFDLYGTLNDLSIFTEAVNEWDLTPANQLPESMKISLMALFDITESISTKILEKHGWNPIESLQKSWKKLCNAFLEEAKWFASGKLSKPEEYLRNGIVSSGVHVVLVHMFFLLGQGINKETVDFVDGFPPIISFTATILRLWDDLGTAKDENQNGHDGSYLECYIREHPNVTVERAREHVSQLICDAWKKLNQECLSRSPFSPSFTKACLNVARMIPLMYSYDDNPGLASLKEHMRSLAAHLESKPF

PtTPS9 = target: T4, PtTPS9 (Populus trichocarpa, UniProt A0A076GBT5); assay: SPME GC-MS product analysis, bacterial extract; details: 10 uM FPP, 10 mM MgCl2, pH 7.0, 30 C; desalted E. coli extract, empty-vector control
T4 construct: gene TPS9; full ORF in pASK-IBA7 (vector tag, if any, not described), E. coli TOP10, desalted bacterial extract
T4 sequence (A0A076GBT5 1-569): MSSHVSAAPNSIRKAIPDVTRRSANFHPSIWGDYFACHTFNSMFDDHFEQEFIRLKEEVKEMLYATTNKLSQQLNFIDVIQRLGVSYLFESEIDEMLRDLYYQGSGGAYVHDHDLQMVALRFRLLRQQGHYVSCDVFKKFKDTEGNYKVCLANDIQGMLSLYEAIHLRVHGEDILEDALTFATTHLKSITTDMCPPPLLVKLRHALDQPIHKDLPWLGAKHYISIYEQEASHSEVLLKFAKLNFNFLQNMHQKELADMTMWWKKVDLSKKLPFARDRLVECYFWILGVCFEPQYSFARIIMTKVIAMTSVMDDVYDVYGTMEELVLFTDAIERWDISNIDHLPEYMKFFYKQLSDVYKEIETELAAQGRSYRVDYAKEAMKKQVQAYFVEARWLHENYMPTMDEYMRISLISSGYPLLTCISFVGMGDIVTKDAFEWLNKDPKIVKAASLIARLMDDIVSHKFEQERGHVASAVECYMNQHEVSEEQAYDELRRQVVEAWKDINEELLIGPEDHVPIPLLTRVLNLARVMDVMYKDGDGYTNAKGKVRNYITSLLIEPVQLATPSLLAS

PtTPS10 = target: T5, PtTPS10 (Populus trichocarpa, UniProt A0A076GH23); assay: hexane overlay GC-MS product analysis, bacterial extract; details: 50 uM GGPP, 10 mM MgCl2, pH 7.0, 30 C, 60 min; desalted E. coli extract, empty-vector control
T5 construct: gene TPS10; full ORF in pASK-IBA7 (vector tag, if any, not described), E. coli TOP10, desalted bacterial extract
T5 sequence (A0A076GH23 1-836): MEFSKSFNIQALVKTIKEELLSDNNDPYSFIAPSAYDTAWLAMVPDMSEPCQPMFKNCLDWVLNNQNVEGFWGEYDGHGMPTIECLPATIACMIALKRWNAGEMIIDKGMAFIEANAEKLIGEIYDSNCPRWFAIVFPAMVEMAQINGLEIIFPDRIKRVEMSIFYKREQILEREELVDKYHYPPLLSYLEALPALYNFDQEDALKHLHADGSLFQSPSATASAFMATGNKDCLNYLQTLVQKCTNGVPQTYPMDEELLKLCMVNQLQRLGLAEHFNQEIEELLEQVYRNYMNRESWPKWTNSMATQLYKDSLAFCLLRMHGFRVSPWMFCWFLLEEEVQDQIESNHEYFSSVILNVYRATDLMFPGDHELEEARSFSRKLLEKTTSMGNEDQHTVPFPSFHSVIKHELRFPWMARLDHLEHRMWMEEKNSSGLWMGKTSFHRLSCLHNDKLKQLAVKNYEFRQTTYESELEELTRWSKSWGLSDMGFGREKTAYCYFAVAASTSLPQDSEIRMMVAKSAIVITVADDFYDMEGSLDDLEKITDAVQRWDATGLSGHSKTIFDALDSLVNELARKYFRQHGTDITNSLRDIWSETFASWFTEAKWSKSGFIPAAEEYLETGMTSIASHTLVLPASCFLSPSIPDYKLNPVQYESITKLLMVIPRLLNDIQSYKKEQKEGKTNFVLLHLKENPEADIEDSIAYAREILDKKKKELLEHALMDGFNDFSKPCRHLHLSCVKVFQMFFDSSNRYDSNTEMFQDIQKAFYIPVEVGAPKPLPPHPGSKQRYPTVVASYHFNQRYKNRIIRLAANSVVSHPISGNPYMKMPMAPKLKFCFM

PtTPS11 = target: T6, PtTPS11 (Populus trichocarpa, UniProt A0A076GAR6); assay: SPME GC-MS product analysis, bacterial extract; details: 10 uM GPP, 10 mM MgCl2, pH 7.0, 30 C; desalted E. coli extract, empty-vector control
T6 construct: gene TPS11; full ORF in pASK-IBA7 (vector tag, if any, not described), E. coli TOP10, desalted bacterial extract
T6 sequence (A0A076GAR6 1-551): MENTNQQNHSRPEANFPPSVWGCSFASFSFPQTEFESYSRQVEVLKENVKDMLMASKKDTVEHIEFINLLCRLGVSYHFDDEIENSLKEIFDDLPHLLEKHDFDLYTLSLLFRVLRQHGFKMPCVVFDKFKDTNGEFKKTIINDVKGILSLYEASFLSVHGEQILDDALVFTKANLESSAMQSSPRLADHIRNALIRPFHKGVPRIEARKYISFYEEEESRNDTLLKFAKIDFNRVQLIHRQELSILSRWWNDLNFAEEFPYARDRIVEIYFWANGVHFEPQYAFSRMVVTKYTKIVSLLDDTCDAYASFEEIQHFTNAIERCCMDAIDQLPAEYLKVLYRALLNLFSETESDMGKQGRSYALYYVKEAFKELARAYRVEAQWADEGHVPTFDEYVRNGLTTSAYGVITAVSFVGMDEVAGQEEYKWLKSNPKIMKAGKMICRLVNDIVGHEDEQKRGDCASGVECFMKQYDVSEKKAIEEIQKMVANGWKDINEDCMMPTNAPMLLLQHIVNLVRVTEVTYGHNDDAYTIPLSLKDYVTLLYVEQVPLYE

PtTPS6 = target: T7, PtTPS6 (Populus trichocarpa, UniProt A0A076GAR5); assay: SPME GC-MS product analysis, bacterial extract; details: 10 uM GPP, 10 mM MgCl2, pH 7.0, 30 C; desalted E. coli extract, empty-vector control
T7 construct: gene TPS6; N-terminally truncated (first 57 nt deleted, predicted plastid transit peptide), pASK-IBA7, E. coli TOP10, desalted bacterial extract
T7 sequence (A0A076GAR5 entry or part of it): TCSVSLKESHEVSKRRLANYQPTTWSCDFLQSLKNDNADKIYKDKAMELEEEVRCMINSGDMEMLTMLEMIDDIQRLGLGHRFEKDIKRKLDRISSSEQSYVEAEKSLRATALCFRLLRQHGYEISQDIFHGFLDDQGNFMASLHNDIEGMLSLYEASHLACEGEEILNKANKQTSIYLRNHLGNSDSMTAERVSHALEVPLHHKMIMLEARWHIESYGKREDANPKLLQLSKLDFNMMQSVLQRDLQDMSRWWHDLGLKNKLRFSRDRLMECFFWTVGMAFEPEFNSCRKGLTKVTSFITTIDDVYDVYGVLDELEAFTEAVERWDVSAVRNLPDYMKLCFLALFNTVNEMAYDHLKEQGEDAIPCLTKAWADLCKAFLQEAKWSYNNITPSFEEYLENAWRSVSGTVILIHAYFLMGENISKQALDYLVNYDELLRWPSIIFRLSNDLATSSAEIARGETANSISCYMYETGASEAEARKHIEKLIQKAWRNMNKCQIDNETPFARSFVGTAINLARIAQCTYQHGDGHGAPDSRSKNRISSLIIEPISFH

T1 sequence (A0A076GAU9 entry or part of it): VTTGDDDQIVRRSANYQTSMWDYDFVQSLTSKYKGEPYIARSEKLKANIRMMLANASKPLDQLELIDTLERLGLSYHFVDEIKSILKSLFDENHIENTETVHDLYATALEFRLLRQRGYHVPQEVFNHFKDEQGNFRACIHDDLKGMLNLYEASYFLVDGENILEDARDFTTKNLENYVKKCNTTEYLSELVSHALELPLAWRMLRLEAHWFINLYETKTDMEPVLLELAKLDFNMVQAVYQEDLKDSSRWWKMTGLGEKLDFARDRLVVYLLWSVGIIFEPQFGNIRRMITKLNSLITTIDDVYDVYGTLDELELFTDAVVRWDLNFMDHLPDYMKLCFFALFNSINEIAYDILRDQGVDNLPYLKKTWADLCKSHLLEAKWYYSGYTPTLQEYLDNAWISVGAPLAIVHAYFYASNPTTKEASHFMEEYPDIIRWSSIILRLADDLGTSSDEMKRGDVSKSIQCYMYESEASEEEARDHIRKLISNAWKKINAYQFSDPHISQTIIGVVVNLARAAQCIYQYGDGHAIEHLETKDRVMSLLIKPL

## CC(C)=CCC/C(C)=C/CC/C(C)=C/COP(=O)(O)OP(=O)(O)O [FPP]
PtTPS12; 10 uM FPP
  SPME GC-MS product analysis, bacterial extract: PtTPS12 showed a broad sesquiterpene product spectrum
PtTPS14
  SPME GC-MS product analysis, bacterial extract: PtTPS14 showed only marginal activity with FPP and produced trace amounts of germacrene D
PtTPS15; 10 uM FPP
  SPME GC-MS product analysis, bacterial extract: PtTPS15 was able to convert FPP to nerolidol
PtTPS9
  SPME GC-MS product analysis, bacterial extract: PtTPS9 produced (E)-β-caryophyllene and smaller amounts of α-humulene

## CC(C)=CCC/C(C)=C/CC/C(C)=C/CC/C(C)=C/COP(=O)(O)OP(=O)(O)O [GGPP]
PtTPS10
  hexane overlay GC-MS product analysis, bacterial extract: PtTPS10 represented a DTS and was able to convert GGPP into geranyllinalool

## CC(C)=CCC/C(C)=C/COP(=O)(O)OP(=O)(O)O [GPP]
PtTPS12; 10 uM GPP
  SPME GC-MS product analysis, bacterial extract: PtTPS12 which formed linalool and trace amounts of β-phellandrene
PtTPS11
  SPME GC-MS product analysis, bacterial extract: When offered GPP as a substrate, PtTPS11 formed several monoterpenes
PtTPS6
  SPME GC-MS product analysis, bacterial extract: (PtTPS6, PtTPS12, PtTPS13 and PtTPS15) accepted GPP as substrate and produced monoterpenes
PtTPS15; 10 uM GPP
  SPME GC-MS product analysis, bacterial extract: PtTPS15, which produced only linalool
